These are literature values, as cited in patent publication US10557153B2, “Degradation of lignocellulosic material” (DSM IP ASSETS B.V., priority 2008, dated 2020).

Holding throughout (conditions): S (Cellobiose) 2.5 g/L
Data set [1] relates to A. oryzae beta-glucosidase.
In data set [2] the test system is Trichoderma beta-glucosidase.
The subject of data set [3] is Talaromyces beta-glucosidase.
Data set [4] relates to A. niger beta-glucosidase.

Turning to `OC[C@H]1O[C@@H](O[C@H]2[C@H](O)[C@@H](O)C(O)O[C@@H]2CO)[C@H](O)[C@@H](O)[C@@H]1O` (stereo partly shown) [cellobiose], the “Vmax (cellobiose)” value in data set [1] was 10131 gr/gr protein/hr; in data set [2] it was 470 gr/gr protein/hr; in data set [3], 1080 gr/gr protein/hr; in data set [4] it was 400 gr/gr protein/hr.
